Laboratory results from patent publication US9554979B2, “Hair care compositions and methods of use” (The Procter & Gamble Company, priority 2011, dated 2017).
Like-named read-outs stand apart in the source and are kept apart here.

Key:
[1] = in water and nearly all solvents suitable for pharmaceutical, cosmetic, and food additive formulations (practically insoluble); cited from earlier work
[2] = Experimentally observed apigenin solubility in solubilizing agents and solvents; type: physicochemical
Text: Non-limiting examples of solubilizing agents, which have suitable Hansen Solubility Parameters and may be used to solubilize apigenin include triethanolamine (CAS No. 102-71-6); diethanolamine (CAS No. 203-868-0); ethanolamine (CAS No. 141-43-5); N-methylformamide (CAS No. 123-39-7); 2-dimethylaminoethanol (CAS No. 203-542-8); 2-dimethylamino-2-propanol (108-16-7); ethylenediamine (CAS No. 107-15-3); 2-amino-2-methyl-1-propanol (CAS No. 124-68-5); laurocapram (CAS No. 59227-89-3); and dimethyl capramide (Spectrasolv, CAS No. 14433-76-2). Non-limiting examples of solvents, which have suitable Hansen Solubility Parameters and may be used in combination with one or more solubilizing agents include dipropyleneglycol (CAS No. 110-98-5); propylene glycol (Hydrolite™ 5, CAS No. […]); butylene glycol (CAS No. 107-88-0); 1,4-butanediol (CAS No. 110-63-4); 3-allyloxy-1,2-propanediol (CAS No. 123-34-2); dipropylene glycol n-butyl ether (CAS No. 29911-28-2); 1,2-hexanediol (CAS No. 6920-22-5); dimethyl isosorbide (Arlasolve™ CAS No. 5306-85-4); ethanol (CAS No. 64-17-5); 1,3-butanediol (CAS No. 107-88-0); 1,3-propanediol (CAS No. 504-63-2); 2,2′-thiodiethanol (CAS No. 111-48-8); and 1,6-hexanediol (CAS No. 629-11-8). Table 2 provides a summary of various solubilizing agents and solvents and their respective HSP values, along with experimentally observed apigenin solubility.

[3] = Apigenin premixtures with various solubilizing agents, solubility; type: physicochemical; details: organic solvent or mixture, thermodynamic from solid
Protocol: According to another embodiment of the invention, a process for preparing a hair care composition includes mixing apigenin and a solubilizing agent at a temperature sufficient to allow dissolution of the apigenin in the solubilizing agent to form a premixture; combining the premixture with an aqueous carrier to form the hair care composition; and optionally, adjusting the pH of the hair care composition with acid to within a range from about 3 to about 10. The premixture is prepared by combining apigenin and one or more solubilizing agents. Solubilization energy (e.g., stiffing, sonication, milling, heat, etc.) may be applied to accelerate the dissolution process. For example, a premixture of apigenin in triethanolamine may be prepared by combining apigenin and triethanolamine in a single vessel and heating the mixture to 70° C. while stirring until a clear solution results. According to one aspect of the exemplary method of making the premixture, the combined apigenin and triethanolamine are mixed at 50-100 rpm using a IKA RET CV-S1 mixer. According to another aspect, the combination is mixed at 300-500 rpm using a IKA Eurostar PWR CV-S1 mixer.

[4] = Qualitative experimental solubility scoring of apigenin in 32 solvents; type: physicochemical; set-up: key: 1 = Completely Dissolved; 2 = Very Swollen; 3 = Swollen; 4 = Slightly Swollen; 5 = Hardly Swollen; 6 = Not touched; — = Assignment Unclear
Protocol: (§1) HSPs and the solubility sphere for apigenin are optimized using the fitting method in the software HSPIP version 3.1.06 from Charles M. Hansen Consulting, Hørsholm, Denmark, hansen-solubility.com. Qualitative experimental solubilities for apigenin in 32 diverse potential solvents are determined using the scoring system at the bottom of Table 1. In the fitting function within HSPiP, solvents with scores of 1 and those with scores of 2-5 are categorized as “good” and “bad” solvents, respectively. […] Because the radius can be unbounded, fits with radii larger than 95% of the radius distribution are removed from these 50 trials (≦8.5 MPa^0.5). • 2. Determine the ranges for δD, δP, δH for the remaining fits. • 3. Locate the fit closest to this point using the Ra equation above. • 4. Chose the values for δD, δP, δH from Step 2 for the HSP's and the value of Ra from Step 3 for the radius.

[5] = Hansen Solubility Parameter fitting for apigenin (HSPiP); details: fitted in HSPiP v. 3.1.06 from solubility scores in 32 solvents
Protocol: as §1
Using this protocol, apigenin HSP values and solvent radius are determined to be δD=18.7, δP=13.5, δH=13.9 and Ra=6.8 (all in MPa^0.5). This sphere defines the initial region encompassing solvents into which apigenin will be soluble. (Note HSPiP v. 3.1.06 is used herein to determine all HSPs by 1) lookup if available within the program's internal database; 2) estimation if not in the database using the Y-MB method; or 3) via the procedure described above (apigenin only).)

For `O=c1cc(-c2ccc(O)cc2)oc2cc(O)cc(O)c12` [apigenin, 5,7-dihydroxy-2-(4-hydroxyphenyl)-4H-1-benzopyran-4-one], the solubility [1] is listed as “less than 1 mg/ml”, the Experimental solubility ([2]; in 1,2-hexanediol at 90 C.) is listed as 0.4% at 90 C and the Experimental solubility ([2]; in 1,3-butanediol at 98 C.) is listed as 1.52% at 98 C. For the same compound, the Experimental solubility ([2]; in 1,3-propanediol at 100 C.) was 0.73% at 100 C, the Experimental solubility ([2]; in 1,4-butanediol at 110 C.) was 1.0% at 110 C and the Experimental solubility ([2]; in 1,6-Hexanediol at 137 C.) was 4.12% at 137 C. For the same compound, the Experimental solubility ([2]; in 2,2′-thiodiethanol at 103 C.) was 0.47% at 103 C, the Experimental solubility ([2]; in 2-amino-2-methyl-1-propanol at 71 C.) was 20.03% at 71 C and the Experimental solubility ([2]; in 2-dimethylamino-2-propanol (CAS 108-16-7) at 21 C.) was 20.18% at 21 C. It also gave an Experimental solubility ([2]; in 2-dimethylaminoethanol at 29 C.) of 19.95% at 29 C, an Experimental solubility ([2]; in 3-allyloxy-1,2-propanediol at 120 C.) of 1.0% at 120 C and an Experimental solubility ([2]; in Dimethyl capramide at RT) of 16.0% at RT. For the same compound, the Experimental solubility ([2]; in Ethanol at 21 C. and 50 C.) was 0.32% at 21 C. and 50 C, the Experimental solubility ([2]; in Laurocapram at 21 C.) was 13.0% at 21 C and the Experimental solubility ([2]; in N-methylformamide) was “Ppt upon cooling”. For the same compound, the Experimental solubility ([2]; in butylene glycol at 98 C.) was 1.52% at 98 C, the Experimental solubility ([2]; in diethanolamine at 128 C.) was 20.25% at 128 C and the Experimental solubility ([2]; in dimethyl isosorbide at 100 C.) was 1.54% at 100 C. It also gave an Experimental solubility ([2]; in dipropylene glycol n-butyl ether at 90 C.) of 0.6% at 90 C, an Experimental solubility ([2]; in dipropyleneglycol at 115 C.) of 2.19% at 115 C and an Experimental solubility ([2]; in ethanolamine at 76 C.) of 20.31% at 76 C. It also gave an Experimental solubility ([2]; in ethylenediamine at 28 C.) of 20.03% at 28 C, an Experimental solubility ([2]; in propylene glycol (CAS 5343-92-0) at 100 C.) of 0.62% at 100 C and an Experimental solubility ([2]; in triethanolamine at 165 C.) of 12.7% at 165 C. The solubility ([3]; 1-Dimethylamino-2-propanol solution, in 1-Dimethylamino-2-propanol solution, room temp, 300 rpm) was 20.2 mg/mL, the solubility ([3]; 1-dimethylamino-2-propanol, in 1-Dimethylamino-2-propanol solution, room temp, 1500 sm) was 20 mg/mL and the solubility ([3]; 1-dimethylamino-2-propanol/TEA, in 1-Dimethylamino-2-propanol/TEA, room temp, 300-810 rpm) was 17.3 mg/mL. The solubility ([3]; 1-dimethylamino-2-propanol/ethanolamine, in 1-Dimethylamino-2-propanol/Ethanolamine, room temp, 300 rpm) was 16.6 mg/mL, the solubility ([3]; 1-dimethylamino-2-propanol/ethanolamine/TEA, in 1-Dimethylamino-2-propanol/Ethanolamine/TEA, room temp, 300-500 rpm) was 16.5 mg/mL and the solubility ([3]; 1-dimethylamino-2-propanol/ethylenediamine, in 1-Dimethylamino-2-propanol/Ethylenediamine, room temp, 400-600 rpm) was 20.1 mg/mL. It also gave a solubility ([3]; 1-methylimidazole, 82 °C, in 1-Methylimidazole, 100 rpm) of 20.4 mg/mL, a solubility ([3]; 2-amino-2-methyl-1-propanol, 71 °C, in 2-amino-2-methyl-1-propanol, 400 rpm) of 20 mg/mL and a solubility ([3]; 2-amino-2-methyl-1-propanol, 71 °C, in 2-amino-2-methyl-1-propanol, 450 rpm) of 14.8 mg/mL. It also gave a solubility ([3]; 2-dimethylaminoethanol, 29 °C, in 2-Dimethylaminoethanol, 300 rpm) of 19.9 mg/mL, a solubility ([3]; 2-dimethylaminoethanol, in 2-Dimethylaminoethanol, room temp, 300 rpm) of 20.2 mg/mL and a solubility ([3]; Dimethyl capramide, in Dimethyl capramide, Room temp, 400 rpm) of 16 mg/mL. For the same compound, the solubility ([3]; N-methylformamide, 101 °C, in N-Methylformamide, 400 rpm) was 13.7 mg/mL, the solubility ([3]; TEA (triethanolamine), 169 °C, in TEA, 450 rpm (synthetic apigenin)) was 14.7 mg/mL and the solubility ([3]; TEA (triethanolamine), in TEA, room temp, 450-590 rpm) was 20 mg/mL. It also gave a solubility ([3]; TEA/1-Dimethylamino-2-propanol, in TEA/1-Dimethylamino-2-propanol, room temp, 350-450 rpm) of 17 mg/mL, a solubility ([3]; TEA/1-Dimethylamino-2-propanol/Ethylenediamine, in TEA/1-Dimethylamino-2-propanol/Ethylenediamine, room temp, 330-600 rpm) of 20.6 mg/mL and a solubility ([3]; TEA/2-Dimethylaminoethanol/1-Dimethylamino-2-propanol, in TEA/2-Dimethylaminoethanol/1-Dimethylamino-2-propanol, room temp, 330-400, 1500 sm) of 15 mg/mL. The solubility ([3]; TEA/2-Dimethylaminoethanol/1-Dimethylamino-2-propanol, in TEA/2-Dimethylaminoethanol/1-Dimethylamino-2-propanol, room temp, 1500 sm) was 15 mg/mL, the solubility ([3]; Triethylene glycol, 156 °C, in Triethylene glycol, 300 rpm) was 6.11 mg/mL and the solubility ([3]; diethanolamine, 128 °C, in Diethanolamine, 550 rpm) was 20.2 mg/mL. It also gave a solubility ([3]; ethanolamine, 29 °C, in Ethanolamine, 350-500 rpm) of 20.1 mg/mL, a solubility ([3]; ethanolamine, 76 °C, in Ethanolamine, 300 rpm) of 20.3 mg/mL and a solubility ([3]; ethanolamine, 76 °C, in Ethanolamine, 400 rpm (synthetic apigenin)) of 20.2 mg/mL. For the same compound, the solubility ([3]; ethanolamine, in Ethanolamine, room temp, 350-740 rpm) was 20.2 mg/mL, the solubility ([3]; ethanolamine/TEA, 29 °C, in Ethanolamine/TEA, 300-600 rpm) was 18 mg/mL and the solubility ([3]; ethanolamine/TEA, in Ethanolamine/TEA, room temp, 350-500 rpm) was 16 mg/mL. For the same compound, the solubility ([3]; ethylenediamine, 28 °C, in Ethylenediamine, 320 rpm) was 20 mg/mL, the solubility ([3]; ethylenediamine, in Ethylenediamine, room temp, 320 rpm) was 20.2 mg/mL and the solubility ([3]; laurocapram, 98%, 140 °C, in Laurocapram, 500-600 rpm) was 14 mg/mL. For the same compound, the solubility ([3]; laurocapram, 98%, in Laurocapram, room temp, 500-600 rpm) was 13.9 mg/mL, the solubility ([3]; pyridine, in Pyridine, room temp, 300 rpm) was 15.8 mg/mL and the “Solubility Score” value ([4]; in 1,4-Dioxane) was 5. The “Solubility Score” value ([4]; in 1-Butanol) was 4, the “Solubility Score” value ([4]; in 2-Phenoxy Ethanol) was 4 and the “Solubility Score” value ([4]; in 2-Propanol) was 4. For the same compound, the “Solubility Score” value ([4]; in Acetone) was 5, the “Solubility Score” value ([4]; in Acetonitrile) was 5 and the “Solubility Score” value ([4]; in Carbon Tetrachloride) was 6. The “Solubility Score” value ([4]; in Chloroform) was 5, the “Solubility Score” value ([4]; in Cyclohexane) was 6 and the “Solubility Score” value ([4]; in Cyclohexanol) was 4. The “Solubility Score” value ([4]; in Cyclohexanone) was 4, the “Solubility Score” value ([4]; in Diacetone Alcohol) was 4 and the “Solubility Score” value ([4]; in Dichloromethane) was 5. The “Solubility Score” value ([4]; in Dimethyl Formamide (DMF)) was 1, the “Solubility Score” value ([4]; in Dimethyl Sulfoxide (DMSO)) was 1 and the “Solubility Score” value ([4]; in Ethyl Acetate) was 5. The “Solubility Score” value ([4]; in Hexane) was 6, the “Solubility Score” value ([4]; in Methanol) was 4 and the “Solubility Score” value ([4]; in Methyl Ethyl Ketone (MEK)) was 5. For the same compound, the “Solubility Score” value ([4]; in Methyl Isobutyl Ketone (MIBK)) was 5, the “Solubility Score” value ([4]; in N-Methyl-2-Pyrrolidone (NMP)) was 1 and the “Solubility Score” value ([4]; in N-methylformamide) was 1. For the same compound, the “Solubility Score” value ([4]; in Propylene Carbonate) was 5, the “Solubility Score” value ([4]; in Propylene Glycol Monomethyl Ether) was 2 and the “Solubility Score” value ([4]; in Propylene Glycol Monomethyl Ether Acetate) was 5. The “Solubility Score” value ([4]; in Tetrahydrofuran (THF)) was 4, the “Solubility Score” value ([4]; in Toluene) was 6 and the “Solubility Score” value ([4]; in gamma-Butyrolactone (GBL)) was 4. The “Solubility Score” value ([4]; in n-Butyl Acetate) was 5, the “Solubility Score” value ([4]; in n-Butyl Acrylate) was 5 and the “Solubility Score” value ([4]; in p-Xylene) was 6. The “HSP δD (dispersion-force component)” value [5] was 18.7 MPa^0.5, the “HSP δH (hydrogen-bonding component)” value [5] was 13.9 MPa^0.5 and the “HSP δP (polar component)” value [5] was 13.5 MPa^0.5. The “solvent radius Ra” value [5] was 6.8 MPa^0.5.
